Patent US9238619B2, “Phenalkylamine derivatives, pharmaceutical compositions containing them, and their use in therapy” (AbbVie Deutschland GmbH & Co. KG, priority 2010, dated 2016)
Where a name gives a salt, the structure may show the parent alone.

Target: human GlyT1c transporter (Homo sapiens (Human), UniProt P48067)
Test: Radioligand binding assays using recombinant CHO cell membranes expressing human GlyT1
Conditions: read-out: radioligand binding Kiapp
Description: Radioligand binding to human GlyT1c transporter-expressing membranes was determined as described in Mezler et al., Molecular Pharmacology 74:1705-1715, 2008.

human GlyT1c transporter, sequence (P48067 whole entry): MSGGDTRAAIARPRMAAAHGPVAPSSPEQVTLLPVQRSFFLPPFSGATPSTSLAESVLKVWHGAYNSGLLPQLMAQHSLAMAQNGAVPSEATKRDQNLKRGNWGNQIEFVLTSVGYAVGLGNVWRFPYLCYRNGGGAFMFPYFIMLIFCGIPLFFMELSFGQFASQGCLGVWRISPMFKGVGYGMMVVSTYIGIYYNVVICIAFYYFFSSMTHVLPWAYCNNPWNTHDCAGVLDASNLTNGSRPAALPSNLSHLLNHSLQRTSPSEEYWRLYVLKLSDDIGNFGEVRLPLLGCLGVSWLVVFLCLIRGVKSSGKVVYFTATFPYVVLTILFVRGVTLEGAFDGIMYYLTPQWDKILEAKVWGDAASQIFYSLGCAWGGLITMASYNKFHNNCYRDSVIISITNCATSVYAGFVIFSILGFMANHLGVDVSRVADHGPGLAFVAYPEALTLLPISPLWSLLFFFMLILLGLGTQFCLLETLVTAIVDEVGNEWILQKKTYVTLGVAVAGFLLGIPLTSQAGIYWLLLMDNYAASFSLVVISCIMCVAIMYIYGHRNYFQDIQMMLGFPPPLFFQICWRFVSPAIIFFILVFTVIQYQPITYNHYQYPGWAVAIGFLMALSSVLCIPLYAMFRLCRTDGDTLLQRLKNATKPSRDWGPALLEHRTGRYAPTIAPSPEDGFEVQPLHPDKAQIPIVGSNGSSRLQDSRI

Ki	Compound
≤ 1 µM	Cn1cc(S(=O)(=O)NCCOc2cccc(C(CN)Cc3cccc(Cl)c3)c2)cn1 (stereo not drawn) [Example 2, 1-Methyl-1H-pyrazole-4-sulfonic acid (2-{3-[2-amino-1-(3-chloro-benzyl)ethyl]-phenoxy}-ethyl)-amide, hydrochloride]
≤ 0.1 µM	CN1CCCC(Cc2ccccc2)(c2cccc(OCCNS(=O)(=O)c3cn(C)cn3)c2)C1 (stereo not drawn) [Example 62, 1-Methyl-1H-imidazole-4-sulfonic acid {2-[3-(3-benzyl-1-methyl-piperidin-3-yl)-phenoxy]-ethyl}-amide]
≤ 0.1 µM	Cn1cnc(S(=O)(=O)NCCOc2cccc(C(CN)Cc3cccc(C(F)(F)F)c3)c2)c1 (stereo not drawn) [Example 12, 1-Methyl-1H-imidazole-4-sulfonic acid (2-{3-[2-amino-1-(3-trifluoromethylbenzyl)-ethyl]-phenoxy}-ethyl)-amide, hydrochloride]
≤ 0.1 µM	CN(C)CC(Cc1ccccc1)c1cc(OCCNS(=O)(=O)c2cnn(C)c2)ccc1F (stereo not drawn) [Example 33, 1-Methyl-1H-pyrazole-4-sulfonic acid {2-[3-(1-benzyl-2-dimethylamino-ethyl)-4-fluoro-phenoxy]-ethyl}-amide]
≤ 10 µM	NCC(Cc1ccccc1)c1cccc(CNS(=O)(=O)CC2CC2)c1 (stereo not drawn) [Example 14, N-[3-(2-Amino-1-benzyl-ethyl)-benzyl]-C-cyclopropyl-methanesulfonamide]
≤ 1 µM	CN(C)CC(Cc1ccccc1)c1cccc(CNS(=O)(=O)c2cn(C)cn2)c1 (stereo not drawn) [Example 26, 1-Methyl-1H-imidazole-4-sulfonic acid 3-(1-benzyl-2-dimethylamino-ethyl)benzylamide]
≤ 1 µM	Cn1cnc(S(=O)(=O)NCCOc2cccc(C3(Cc4ccccc4)CN(CC(F)F)C3)c2)c1 [Example 55, 1-Methyl-1H-imidazole-4-sulfonic acid (2-{3-[3-benzyl-1-(2,2-difluoro-ethyl)azetidin-3-yl]-phenoxy}-ethyl)-amide]
≤ 1 µM	Cn1cc(S(=O)(=O)NCCOc2cccc(C(Cc3ccccc3)CN3CCCC3)c2)cn1 (stereo not drawn) [Example 34, 1-Methyl-1H-pyrazole-4-sulfonic acid {2-[3-(1-benzyl-2-pyrrolidin-1-yl-ethyl)phenoxy]-ethyl}-amide]
≤ 1 µM	CCOC(=O)N1CC(Cc2ccccc2)(c2cccc(OCCNS(=O)(=O)c3cn(C)cn3)c2)C1 [Example 47, 3-Benzyl-3-{3-[2-(1-methyl-1H-imidazole-4-sulfonylamino)-ethoxy]-phenyl}-azetidine-1-carboxylic acid ethyl ester]
≤ 0.1 µM	CN1CC(Cc2ccccc2)(c2ccc(F)c(OCCNS(=O)(=O)c3cn(C)cn3)c2)C1 [Example 52, 1-Methyl-1H-imidazole-4-sulfonic acid {2-[5-(3-benzyl-1-methyl-azetidin-3-yl)-2-fluoro-phenoxy]-ethyl}-amide]
≤ 0.1 µM	CN(C)CC(Cc1ccccc1)c1ccc(F)c(OCCNS(=O)(=O)c2cn(C)cn2)c1 (stereo not drawn) [Example 32, 1-Methyl-1H-imidazole-4-sulfonic acid {2-[5-(1-benzyl-2-dimethylamino-ethyl)-2-fluoro-phenoxy]-ethyl}-amide]
≤ 1 µM	CN(C)CC(Cc1ccccc1)c1cccc(CNS(=O)(=O)c2cnn(C)c2)c1 (stereo not drawn) [Example 27, 1-Methyl-1H-pyrazole-4-sulfonic acid 3-(1-benzyl-2-dimethylamino-ethyl)benzylamide]
≤ 1 µM	CCOC(=O)N1CC(Cc2ccccc2)(c2cccc(OCCNS(=O)(=O)CC3CC3)c2)C1 [Example 48, 3-Benzyl-3-[3-(2-cyclopropylmethanesulfonylamino-ethoxy)-phenyl]-azetidine-1-carboxylic acid ethyl ester]
≤ 10 µM	Cn1cnc(S(=O)(=O)NCc2cccc(C(Cc3ccccc3)C(N)=O)c2)c1 (stereo not drawn) [Example 16, 2-{3-[(1-Methyl-1H-imidazole-4-sulfonylamino)-methyl]-phenyl}-3-phenyl-propionamide]
≤ 0.1 µM	CN(C)CC(Cc1ccccc1)c1cc(OCCNS(=O)(=O)c2cn(C)cn2)ccc1F (stereo not drawn) [Example 23, 1-Methyl-1H-imidazole-4-sulfonic acid {2-[3-(1-benzyl-2-dimethylamino-ethyl)-4-fluoro-phenoxy]-ethyl}-amide]

The remaining lines, values behind:

Compound	Ki
CN1CCC(Cc2ccccc2)(c2cccc(OCCN(C)S(=O)(=O)c3cn(C)cn3)c2)C1 (stereo not drawn) [Example 74, 1-Methyl-1H-imidazole-4-sulfonic acid {2-[3-(3-benzyl-1-methyl-pyrrolidin-3-yl)-phenoxy]-ethyl}-methyl-amide]	≤ 1 µM
CN1CCC(Cc2ccccc2)(c2cccc(OCCNS(=O)(=O)c3cn(C)cn3)c2)C1 (stereo not drawn) [Example 70, 1-Methyl-1H-imidazole-4-sulfonic acid {2-[3-(3-benzyl-1-methyl-pyrrolidin-3-yl)-phenoxy]-ethyl}-amide]	≤ 0.1 µM
Cn1cnc(S(=O)(=O)NCCOc2cccc(C3(Cc4ccccc4)CCN(C(=O)C(F)F)C3)c2)c1 (stereo not drawn) [Example 71, 1-Methyl-1H-imidazole-4-sulfonic acid (2-{3-[3-benzyl-1-(2,2-difluoro-acetyl)pyrrolidin-3-yl]-phenoxy}-ethyl)-amide]	≤ 1 µM
CN(Cc1cccc(C(CNC(=O)OC(C)(C)C)C2(c3ccc(Cl)cc3)CCC2)c1)S(=O)(=O)c1cnn(C)c1 (stereo not drawn) [Example 39, tert-Butyl {2-[1-(4-chlorophenyl)cyclobutyl]-2-[3-({methyl[(1-methyl-1H-pyrazol-4-yl)sulfonyl]amino}methyl)phenyl]ethyl}carbamate]	≤ 10 µM
Cn1cnc(S(=O)(=O)NCCOc2cccc(C(Cc3ccccc3)CN3CCCC3)c2)c1 (stereo not drawn) [Example 35, 1-Methyl-1H-imidazole-4-sulfonic acid {2-[3-(1-benzyl-2-pyrrolidin-1-yl-ethyl)phenoxy]-ethyl}-amide]	≤ 1 µM
CN(Cc1cccc(C(CNC(=O)OC(C)(C)C)C2(c3ccc(Cl)cc3)CCC2)c1)S(=O)(=O)c1cn(C)cn1 (stereo not drawn) [Example 41, tert-Butyl {2-[1-(4-chlorophenyl)cyclobutyl]-2-[3-({methyl[(1-methyl-1H-imidazol-4-yl)sulfonyl]amino}methyl)phenyl]ethyl}carbamate]	≤ 10 µM
Cn1cc(S(=O)(=O)NCCOc2cccc(C3(Cc4ccccc4)CCNC3)c2)cn1 (stereo not drawn) [Example 60, 1-Methyl-1H-pyrazole-4-sulfonic acid {2-[3-(3-benzyl-pyrrolidin-3-yl)phenoxy]-ethyl}-amide]	≤ 0.1 µM
Cn1cnc(S(=O)(=O)NCCOc2cccc(C(CN)Cc3cccc(Cl)c3)c2)c1 (stereo not drawn) [Example 9, 1-Methyl-1H-imidazole-4-sulfonic acid (2-{3-[2-amino-1-(3-chloro-benzyl)ethyl]-phenoxy}-ethyl)-amide, hydrochloride]	≤ 1 µM
O=S(=O)(CC1CC1)NCCOc1cccc(C2(Cc3ccccc3)CCNC2)c1 (stereo not drawn) [Example 59, N-{2-[3-(3-Benzyl-pyrrolidin-3-yl)-phenoxy]-ethyl}-C-cyclopropyl-methanesulfonamide]	≤ 0.1 µM
Cn1cnc(S(=O)(=O)NCCOc2cccc(C(CN)Cc3ccccc3)c2)c1 (stereo not drawn) [Example 5, 1-Methyl-1H-imidazole-4-sulfonic acid {2-[3-(2-amino-1-benzyl-ethyl)phenoxy]-ethyl}-amide]	≤ 0.1 µM
CN1CCCC(Cc2ccccc2)(c2cccc(OCCNS(=O)(=O)CC3CC3)c2)C1 (stereo not drawn) [Example 64, N-{2-[3-(3-Benzyl-1-methyl-piperidin-3-yl)-phenoxy]-ethyl}-C-cyclopropyl-methanesulfonamide]	≤ 10 µM
Cn1cc(S(=O)(=O)NCc2cccc(C(Cc3ccccc3)CN3CCC3)c2)cn1 (stereo not drawn) [Example 37, 1-Methyl-1H-pyrazole-4-sulfonic acid 3-(2-azetidin-1-yl-1-benzyl-ethyl)benzylamide, hydrochloride]	≤ 1 µM
Cn1cnc(S(=O)(=O)NCCOc2cccc(C3(Cc4ccccc4)CN(CCF)C3)c2)c1 [Example 72, 1-Methyl-1H-imidazole-4-sulfonic acid (2-{3-[3-benzyl-1-(2-fluoro-ethyl)azetidin-3-yl]-phenoxy}-ethyl)-amide]	≤ 0.1 µM
Cn1cc(S(=O)(=O)NCc2cccc(C(CN)Cc3ccccc3)c2)cn1 (stereo not drawn) [Example 18, 1-Methyl-1H-pyrazole-4-sulfonic acid 3-(2-amino-1-benzyl-ethyl)benzylamide, hydrochloride]	≤ 0.1 µM
Cn1cnc(S(=O)(=O)NCCOc2cccc(C3(Cc4ccccc4)CN(CC(F)(F)F)C3)c2)c1 [Example 54, 1-Methyl-1H-imidazole-4-sulfonic acid (2-{3-[3-benzyl-1-(2,2,2-trifluoro-ethyl)azetidin-3-yl]-phenoxy}-ethyl)-amide]	≤ 1 µM
CC(C)N1CCC(Cc2ccccc2)(c2cccc(OCCNS(=O)(=O)c3cn(C)cn3)c2)C1 (stereo not drawn) [Example 77, 1-Methyl-1H-imidazole-4-sulfonic acid {2-[3-(3-benzyl-1-isopropyl-pyrrolidin-3-yl)-phenoxy]-ethyl}-amide]	≤ 1 µM
O=C1CC(Cc2ccccc2)(c2cccc(OCCNS(=O)(=O)CC3CC3)c2)CN1 (stereo not drawn) [Example 57, N-{2-[3-(3-Benzyl-5-oxo-pyrrolidin-3-yl)-phenoxy]-ethyl}-C-cyclopropyl-methanesulfonamide]	≤ 10 µM
CN1CCCC(Cc2ccccc2)(c2cccc(OCCNS(=O)(=O)c3cnn(C)c3)c2)C1 (stereo not drawn) [Example 63, 1-Methyl-1H-pyrazole-4-sulfonic acid {2-[3-(3-benzyl-1-methyl-piperidin-3-yl)phenoxy]-ethyl}-amide]	≤ 0.1 µM
CCOC(=O)N1CC(Cc2ccccc2)(c2cccc(OCCNS(=O)(=O)c3cnn(C)c3)c2)C1 [Example 46, 3-Benzyl-3-{3-[2-(1-methyl-1H-pyrazole-4-sulfonylamino)-ethoxy]-phenyl}-azetidine-1-carboxylic acid ethyl ester]	≤ 10 µM
CN(C)CC(Cc1ccccc1)c1ccc(F)c(OCCNS(=O)(=O)c2cnn(C)c2)c1 (stereo not drawn) [Example 31, 1-Methyl-1H-pyrazole-4-sulfonic acid {2-[5-(1-benzyl-2-dimethylamino-ethyl)-2-fluoro-phenoxy]-ethyl}-amide]	≤ 0.1 µM
CN(Cc1cccc(C(CN)C2(c3ccc(Cl)cc3)CCC2)c1)S(=O)(=O)c1cn(C)cn1 (stereo not drawn) [Example 44, N-(3-{2-Amino-1-[1-(4-chlorophenyl)cyclobutyl]ethyl}benzyl)-N,1-dimethyl-1H-imidazole-4-sulfonamide hydrochloride]	≤ 10 µM
